From US7569572B2, “Pyrazolo[4,3-D]pyrimidines” (Pfizer Inc, priority 2004, dated 2009)
Structures can show the parent of a compound that is named as a salt.

Biological target: T1, human platelet PDE5 (Homo sapiens, UniProt O76074)
T1 construct: utilizes PDE5 isolated from human platelets; from tissue; host or cells: human platelets
Assay: Method B: PDE-5 Inhibition Scintillation Proximity Assay (SPA) - Human Platelet (modified protocol of Method A)
Assay type: biochemical
Settings: cGMP substrate 50 nM, PDE5 isolated from human platelets
Protocol: Method B: PDE-5 Inhibition Scintillation Proximity Assay (SPA)—Human Platelet
This method is a modified protocol of Method A.
The assay measures the inhibition of human platelet PDE5 enzyme activity by a test compound in an in vitro assay that utilizes PDE5 isolated from human platelets. PDE5 catalyzes the hydrolysis of [^3H]cGMP to the 5′ nucleotide [^3H]GMP. [^3H]GMP binds to yttrium silicate SPA beads and is detected by scintillation counting. The inhibition of enzyme activity is calculated relative to total PDE5 activity of uninhibited controls.
PDE5 IC50 Assay: 96-Well Microtiter Plate Format
Buffer A: 20 mM Tris-HCl, 5 mM MgCl2, pH 7.4
Buffer B: 2 mg/ml BSA in Buffer A (enzyme buffer)
cGMP substrate: Final concentration of 50 nM in assay
The amount of ^3H-labeled substrate added depends upon the specific activity of [^3H]cGMP, and it is diluted in Buffer A.
PDE enzyme: Prepared in Buffer B. The dilution factor is determined by enzyme activity.
SPA beads: 4 mg/ml suspension prepared in dH2O.
Stocks of standard and test compounds are prepared at 2 mM in 100% DMSO. Compounds are serially diluted in separate dilution plates using an 8-point ⅕ log dilution format such that the starting concentration in the assay is 2 μM for an initial IC50 screen. 27 μl of Buffer A are added to the wells of the assay plates. From the dilution plates, 3 μl of diluted compounds are delivered in duplicate or 3 μl of 100% DMSO (for positive and negative controls) are added. 30 μl of enzyme are added. For the negative control wells, Buffer B is substituted in place of the enzyme. 30 μl of labeled substrate are added to all wells.
After incubating for 60 minutes at room temperature, the reaction is stopped with the addition of 30 μl of the yttrium silicate beads. These beads are dense and require constant agitation while being added to the plate. The plates are sealed and shaken on a plate shaker for fifteen minutes to allow the beads to bind the GMP product.
After allowing the beads to settle for 30 minutes, plates are read on a NXT TopCount and data is analyzed in the Bioassay Solver application. Percent inhibition values are calculated using the means of the 0% and 100% controls on each plate. The estimates of the 4-parameters of the logistic, sigmoid dose-response model are then calculated using the well-level percent inhibition values for each compound. These estimates are used to calculate the concentration that corresponds to 50% inhibition.

Structure (SMILES)	IC50 [nM]
FC(F)(F)CNCc1nn(CCOCC(F)(F)F)c2c(Nc3ccncn3)nc(N3CCNCC3)nc12 [Example 50, 1-(2-(2,2,2-trifluoroethoxy)ethyl)-3-((2,2,2-trifluoroethylamino)methyl)-5-(piperazin-1-yl)-N-(pyrimidin-4-yl)-1H-pyrazolo[4,3-d]pyrimidin-7-amine trifluoroacetate]	1.06
C[C@@H]1CN(c2nc(Nc3ccncn3)c3c(n2)c(CN2CCCCC2)nn3CCOCC(F)(F)F)CCN1 [Example 45, 5-[(3R)-3-Methylpiperazin-1-yl]-3-(piperidin-1-ylmethyl)-N-pyrimidin-4-yl-1-[2-(2,2,2-trifluoroethoxy)ethyl]-1H-pyrazolo[4,3-d]pyrimidin-7-amine trifluoroacetate]	1.25
CCN(CC)Cc1nn(CCOCC(F)(F)F)c2c(Nc3ccncn3)nc(N(CC)CC)nc12 [Example 48, 3-[(Diethylamino)methyl]-N^5,N^5-diethyl-N^7-pyrimidin-4-yl-1-[2-(2,2,2-trifluoroethoxy)ethyl]-1H-pyrazolo[4,3-d]pyrimidine-5,7-diamine trifluoroacetate]	7.39
FC(F)(F)COCCn1nc(CN2CCNCC2)c2nc(N3CCNCC3)nc(Nc3ccncn3)c21 [Example 41, 5-Piperazin-1-yl-3-(piperazin-1-ylmethyl)-N-pyrimidin-4-yl-1-[2-(2,2,2-trifluoroethoxy)ethyl]-1H-pyrazolo[4,3-d]pyrimidin-7-amine trifluoroacetate]	1.8

The next compounds have a lower IC50 than those just listed; values first:

IC50 [nM]	Structure (SMILES)
0.14	C[C@@H]1CN(c2nc(Nc3ccncn3)c3c(n2)c(CN2CCSCC2)nn3CCOCC(F)(F)F)CCN1 [Example 46, 5-[(3R)-3-methylpiperazin-1-yl]-N-pyrimidin-4-yl-3-(thiomorpholin-4-ylmethyl)-1-[2-(2,2,2-trifluoroethoxy)ethyl]-1H-pyrazolo[4,3-d]pyrimidin-7-amine trifluoroacetate]
0.21	FC(F)(F)COCCn1nc(CN2CCOCC2)c2nc(N3CCNCC3)nc(Nc3ccncn3)c21 [Example 43, 3-(Morpholin-4-ylmethyl)-5-piperazin-1-yl-N-pyrimidin-4-yl-1-[2-(2,2,2-trifluoroethoxy)ethyl]-1H-Pyrazolo[4,3-d]pyrimidin-7-amine trifluoroacetate]
0.58	C[C@@H]1CN(c2nc(Nc3ccncn3)c3c(n2)c(CN2CCS(=O)(=O)CC2)nn3CCOCC(F)(F)F)CCN1 [Example 49, 3-[(1,1-Dioxidothiomorpholin-4-yl)methyl]-5-[(3R)-3-methylpiperazin-1-yl]-N-pyrimidin-4-yl-1-[2-(2,2,2-trifluoroethoxy)ethyl]-1H-pyrazolo[4,3-d]pyrimidin-7-amine trifluoroacetate]
0.47	C[C@@H]1CN(c2nc(Nc3ccncn3)c3c(n2)c(CN2CCN(C)CC2)nn3CCOCC(F)(F)F)CCN1 [Example 47, 5-[(3R)-3-Methylpiperazin-1-yl]-3-[(4-methylpiperazin-1-yl)methyl]-N-pyrimidin-4-yl-1-[2-(2,2,2-trifluoroethoxy)ethyl]-1H-pyrazolo[4,3-d]pyrimidin-7-amine trifluoroacetate]
0.32	C[C@@H]1CN(c2nc(Nc3ccncn3)c3c(n2)c(CN2CCOCC2)nn3CCOCC(F)(F)F)CCN1 [Example 42, 5-[(3R)-3-Methylpiperazin-1-yl]-3-(morpholin-4-ylmethyl)-N-pyrimidin-4-yl-1-[2-(2,2,2-trifluoroethoxy)ethyl]-1H-pyrazolo[4,3-d]pyrimidin-7-amine trifluoroacetate]
0.79	CCN(C)c1nc(Nc2ccncn2)c2c(n1)c(CN1CCSCC1)nn2CCOCC(F)(F)F [Example 44, N^5-Ethyl-N^5-methyl-N^7-pyrimidin-4-yl-3-(thiomorpholin-4-ylmethyl)-1-[2-(2,2,2-trifluoroethoxy)ethy]-1H-pyrazolo[4,3-d]pyrimidine-5,7-diamine trifluoroacetate]
